# Experimental data taken from ChEMBL document CHEMBL4196002, “Design, synthesis, mechanistic and histopathological studies of small-molecules of novel indole-2-carboxamides and pyrazino[1,2-a]indol-1(2H)-ones as potential anticancer agents effecting the reactive oxygen species production” (Eur J Med Chem, 2018).
# Test system: not listed separately
# Experiment: Cytotoxicity against human MCF10A cells assessed as cell viability at 50 uM after 96 hrs by MTT assay relative to control
# Format: cell-based, MCF-10A
# Conditions: read-out: Activity
row,SMILES,"viability at 96 h, 50 µM [%]"
1,O=c1[nH]c(Cc2ccccc2)cn2c1cc1ccccc12,92
2,CCc1c2cc(Br)ccc2n2cc(Cc3ccccc3)[nH]c(=O)c12,82
3,O=C(NC(CO)Cc1ccccc1)c1cc2cc(Cl)ccc2[nH]1 (stereo unspecified),89

# Test system: not listed separately
# Experiment: Inhibition of ROS generation in human PMN at 0.78 ug/ml after 50 mins by luminol-based chemiluminescence assay relative to control
# Format: functional
# Conditions: not given
row,SMILES,inhibition at 0.78 µg/mL [%]
1,O=c1[nH]c(Cc2ccccc2)cn2c1cc1ccccc12,14
2,CCc1c2cc(Br)ccc2n2cc(Cc3ccccc3)[nH]c(=O)c12,25
3,O=C(NC(CO)Cc1ccccc1)c1cc2cc(Cl)ccc2[nH]1 (stereo unspecified),25

# Test system: not listed separately
# Experiment: Inhibition of ROS generation in human PMN at 1.56 ug/ml after 50 mins by luminol-based chemiluminescence assay relative to control
# Format: functional
# Conditions: not given
row,SMILES,inhibition at 1.56 µg/mL [%]
1,O=c1[nH]c(Cc2ccccc2)cn2c1cc1ccccc12,27
2,CCc1c2cc(Br)ccc2n2cc(Cc3ccccc3)[nH]c(=O)c12,44
3,O=C(NC(CO)Cc1ccccc1)c1cc2cc(Cl)ccc2[nH]1 (stereo unspecified),33

# Test system: PC-3
# Experiment: Antiproliferative activity human PC3 cells after 48 hrs by propidium iodide staining-based fluorescence assay
# Format: functional, cell-based
# Conditions: PC-3, 48 h
row,IC50 [µM],SMILES
1,13.4,O=c1[nH]c(Cc2ccccc2)cn2c1cc1ccccc12
2,3.4,CCc1c2cc(Br)ccc2n2cc(Cc3ccccc3)[nH]c(=O)c12
3,2.4,O=C(NC(CO)Cc1ccccc1)c1cc2cc(Cl)ccc2[nH]1 (stereo unspecified)

# Test system: A549
# Experiment: Antiproliferative activity human A549 cells after 48 hrs by propidium iodide staining-based fluorescence assay
# Format: functional, cell-based
# Conditions: A549, 48 h
row,IC50 [µM],SMILES
1,14.7,O=c1[nH]c(Cc2ccccc2)cn2c1cc1ccccc12
2,4.5,CCc1c2cc(Br)ccc2n2cc(Cc3ccccc3)[nH]c(=O)c12
3,1.9,O=C(NC(CO)Cc1ccccc1)c1cc2cc(Cl)ccc2[nH]1 (stereo unspecified)

# Test system: MCF7
# Experiment: Antiproliferative activity human MCF7 cells after 48 hrs by propidium iodide staining-based fluorescence assay
# Format: functional, cell-based
# Conditions: MCF7, 48 h
row,IC50 [µM],SMILES
1,13.6,O=c1[nH]c(Cc2ccccc2)cn2c1cc1ccccc12
2,3.6,CCc1c2cc(Br)ccc2n2cc(Cc3ccccc3)[nH]c(=O)c12
3,1.4,O=C(NC(CO)Cc1ccccc1)c1cc2cc(Cl)ccc2[nH]1 (stereo unspecified)

# Test system: MIA PaCa-2
# Experiment: Antiproliferative activity human MIAPaCa2 cells after 48 hrs by propidium iodide staining-based fluorescence assay
# Format: functional, cell-based
# Conditions: MIA PaCa-2, 48 h
row,IC50 [µM],SMILES
1,13.8,O=c1[nH]c(Cc2ccccc2)cn2c1cc1ccccc12
2,4.6,CCc1c2cc(Br)ccc2n2cc(Cc3ccccc3)[nH]c(=O)c12
3,2.6,O=C(NC(CO)Cc1ccccc1)c1cc2cc(Cl)ccc2[nH]1 (stereo unspecified)

# Test system: HT-29
# Experiment: Antiproliferative activity human HT-29 cells after 48 hrs by propidium iodide staining-based fluorescence assay
# Format: functional, cell-based
# Conditions: HT-29, 48 h
row,IC50 [µM],SMILES
1,13.8,O=c1[nH]c(Cc2ccccc2)cn2c1cc1ccccc12
2,4.8,CCc1c2cc(Br)ccc2n2cc(Cc3ccccc3)[nH]c(=O)c12
3,2.4,O=C(NC(CO)Cc1ccccc1)c1cc2cc(Cl)ccc2[nH]1 (stereo unspecified)

# Target: Tubulin (Homo sapiens) (UniProt P68371+Q9H4B7+P0DPH7+P68366+Q13509+Q71U36+P04350+Q3ZCM7+P07437+P68363+Q9BQE3+Q6PEY2+Q13885+Q9BVA1+Q9BUF5)
# Experiment: Inhibition of tubulin (unknown origin) polymerization assessed as tubulin assembly rate by fluorescence assay
# Format: protein-complex assay
# Conditions: not given
row,Activity [a.u.],SMILES
1,2420,O=C(NC(CO)Cc1ccccc1)c1cc2cc(Cl)ccc2[nH]1 (stereo unspecified)

# Target: Epidermal growth factor receptor (Homo sapiens, UniProt P00533)
# Experiment: Inhibition of His6-tagged EGFR (unknown origin) cytoplasmic domain expressed in baculovirus infected Sf9 insect cells after 10 mins followed by addition of ATP-MgCl2 and measured after 1 hr by time-resolved fluorometric analysis
# Conditions: not given
# Sequence of Epidermal growth factor receptor (P00533 whole entry, the tested form may be a part): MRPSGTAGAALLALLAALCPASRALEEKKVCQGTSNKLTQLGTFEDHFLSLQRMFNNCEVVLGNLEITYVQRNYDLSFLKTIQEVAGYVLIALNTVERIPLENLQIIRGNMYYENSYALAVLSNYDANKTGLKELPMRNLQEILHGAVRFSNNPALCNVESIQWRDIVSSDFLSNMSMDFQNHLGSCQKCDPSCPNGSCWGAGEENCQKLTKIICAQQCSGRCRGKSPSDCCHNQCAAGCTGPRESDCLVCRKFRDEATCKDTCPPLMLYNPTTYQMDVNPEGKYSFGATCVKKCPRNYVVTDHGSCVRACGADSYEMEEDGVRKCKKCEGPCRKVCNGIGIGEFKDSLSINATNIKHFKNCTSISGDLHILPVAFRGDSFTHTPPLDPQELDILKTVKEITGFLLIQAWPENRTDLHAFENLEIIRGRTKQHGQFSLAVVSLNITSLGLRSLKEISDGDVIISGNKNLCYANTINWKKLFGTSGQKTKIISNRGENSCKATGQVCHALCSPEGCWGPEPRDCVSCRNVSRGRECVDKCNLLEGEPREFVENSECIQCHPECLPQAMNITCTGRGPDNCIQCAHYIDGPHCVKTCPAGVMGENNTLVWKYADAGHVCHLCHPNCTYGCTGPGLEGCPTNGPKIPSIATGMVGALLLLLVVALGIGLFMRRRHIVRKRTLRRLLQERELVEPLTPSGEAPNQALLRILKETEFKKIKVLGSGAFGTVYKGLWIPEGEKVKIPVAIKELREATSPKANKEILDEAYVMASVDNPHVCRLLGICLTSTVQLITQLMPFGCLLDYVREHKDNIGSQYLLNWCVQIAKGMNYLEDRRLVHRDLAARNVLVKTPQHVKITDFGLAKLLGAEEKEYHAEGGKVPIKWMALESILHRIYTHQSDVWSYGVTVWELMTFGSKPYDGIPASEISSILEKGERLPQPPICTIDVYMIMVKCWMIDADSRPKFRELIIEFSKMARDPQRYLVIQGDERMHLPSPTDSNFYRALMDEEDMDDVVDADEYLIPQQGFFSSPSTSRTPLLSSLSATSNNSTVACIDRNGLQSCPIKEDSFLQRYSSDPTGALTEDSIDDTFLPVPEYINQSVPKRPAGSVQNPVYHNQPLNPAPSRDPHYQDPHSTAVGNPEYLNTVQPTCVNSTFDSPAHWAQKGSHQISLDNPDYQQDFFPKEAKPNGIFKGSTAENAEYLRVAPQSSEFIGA
row,IC50 [µM],SMILES
1,0.8,O=C(NC(CO)Cc1ccccc1)c1cc2cc(Cl)ccc2[nH]1 (stereo unspecified)

# Target: Serine/threonine-protein kinase B-raf (Mus musculus, UniProt P28028, V600E)
# Experiment: Inhibition of mouse full-length GST-tagged BRAF V600E mutant using recombinant human full length N-terminal His-tagged MEK1 as substrate preincubated for 60 mins followed by substrate addition and measured after 25 mins by ELISA
# Conditions: not given
# Sequence of Serine/threonine-protein kinase B-raf (P28028 whole entry, looked up, stated change not applied): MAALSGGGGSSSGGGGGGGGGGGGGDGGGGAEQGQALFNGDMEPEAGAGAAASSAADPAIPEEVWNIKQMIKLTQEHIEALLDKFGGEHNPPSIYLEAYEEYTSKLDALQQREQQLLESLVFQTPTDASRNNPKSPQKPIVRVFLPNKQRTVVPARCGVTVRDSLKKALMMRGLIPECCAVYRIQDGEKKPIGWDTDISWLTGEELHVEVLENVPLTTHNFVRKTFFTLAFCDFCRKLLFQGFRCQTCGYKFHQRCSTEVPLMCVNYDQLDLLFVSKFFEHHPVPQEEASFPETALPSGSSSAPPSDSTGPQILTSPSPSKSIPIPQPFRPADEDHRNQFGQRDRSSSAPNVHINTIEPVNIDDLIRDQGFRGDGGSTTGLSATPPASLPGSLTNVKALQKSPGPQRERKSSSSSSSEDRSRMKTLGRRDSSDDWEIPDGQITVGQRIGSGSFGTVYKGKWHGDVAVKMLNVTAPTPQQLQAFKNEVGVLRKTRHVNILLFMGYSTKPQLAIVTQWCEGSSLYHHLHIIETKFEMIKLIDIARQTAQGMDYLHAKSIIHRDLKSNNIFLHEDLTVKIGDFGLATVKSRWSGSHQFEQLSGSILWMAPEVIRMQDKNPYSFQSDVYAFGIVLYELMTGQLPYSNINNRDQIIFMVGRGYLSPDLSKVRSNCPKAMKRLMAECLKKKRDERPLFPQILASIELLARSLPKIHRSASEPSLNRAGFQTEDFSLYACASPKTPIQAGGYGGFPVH
row,IC50 [µM],SMILES
1,4.8,O=C(NC(CO)Cc1ccccc1)c1cc2cc(Cl)ccc2[nH]1 (stereo unspecified)

# Test system: not listed separately
# Experiment: Inhibition of ROS generation in human PMN at 3.13 ug/ml after 50 mins by luminol-based chemiluminescence assay relative to control
# Format: functional
# Conditions: not given
row,SMILES,inhibition at 3.13 µg/mL [%]
1,O=c1[nH]c(Cc2ccccc2)cn2c1cc1ccccc12,40
2,CCc1c2cc(Br)ccc2n2cc(Cc3ccccc3)[nH]c(=O)c12,52
3,O=C(NC(CO)Cc1ccccc1)c1cc2cc(Cl)ccc2[nH]1 (stereo unspecified),48

# Test system: not listed separately
# Experiment: Inhibition of ROS generation in human PMN at 6.25 ug/ml after 50 mins by luminol-based chemiluminescence assay relative to control
# Format: functional
# Conditions: not given
row,SMILES,inhibition at 6.25 µg/mL [%]
1,O=c1[nH]c(Cc2ccccc2)cn2c1cc1ccccc12,51
2,CCc1c2cc(Br)ccc2n2cc(Cc3ccccc3)[nH]c(=O)c12,61
3,O=C(NC(CO)Cc1ccccc1)c1cc2cc(Cl)ccc2[nH]1 (stereo unspecified),60

# Test system: not listed separately
# Experiment: Inhibition of ROS generation in human PMN at 12.5 ug/ml after 50 mins by luminol-based chemiluminescence assay relative to control
# Format: functional
# Conditions: not given
row,SMILES,inhibition at 12.5 µg/mL [%]
1,O=c1[nH]c(Cc2ccccc2)cn2c1cc1ccccc12,68
2,CCc1c2cc(Br)ccc2n2cc(Cc3ccccc3)[nH]c(=O)c12,70
3,O=C(NC(CO)Cc1ccccc1)c1cc2cc(Cl)ccc2[nH]1 (stereo unspecified),77

# Test system: not listed separately
# Experiment: (§1) Inhibition of ROS generation in human PMN after 50 mins by luminol-based chemiluminescence assay
# Format: functional
# Conditions: not given
row,IC50 [µM],SMILES
1,19,O=c1[nH]c(Cc2ccccc2)cn2c1cc1ccccc12
2,6.44,CCc1c2cc(Br)ccc2n2cc(Cc3ccccc3)[nH]c(=O)c12
3,11.3,O=C(NC(CO)Cc1ccccc1)c1cc2cc(Cl)ccc2[nH]1 (stereo unspecified)

# Species: Homo sapiens
# Experiment: as §1
# Format: functional
# Conditions: not given
row,SMILES,inhibition
1,O=c1[nH]c(Cc2ccccc2)cn2c1cc1ccccc12,Dose-dependent effect
2,CCc1c2cc(Br)ccc2n2cc(Cc3ccccc3)[nH]c(=O)c12,Dose-dependent effect
3,O=C(NC(CO)Cc1ccccc1)c1cc2cc(Cl)ccc2[nH]1 (stereo unspecified),Dose-dependent effect

# Test system: not listed separately
# Experiment: Antioxidant activity assessed as DPPH radical scavenging activity at 100 uM after 30 mins dark incubation
# Format: functional
# Conditions: not given
row,SMILES,Activity [%]
1,O=c1[nH]c(Cc2ccccc2)cn2c1cc1ccccc12,65.9
2,CCc1c2cc(Br)ccc2n2cc(Cc3ccccc3)[nH]c(=O)c12,82.4
3,O=C(NC(CO)Cc1ccccc1)c1cc2cc(Cl)ccc2[nH]1 (stereo unspecified),77.5

# Test system: not listed separately
# Experiment: Antioxidant activity assessed as DPPH radical scavenging activity at 50 uM after 30 mins dark incubation
# Format: functional
# Conditions: not given
row,SMILES,Activity [%]
1,O=c1[nH]c(Cc2ccccc2)cn2c1cc1ccccc12,52.4
2,CCc1c2cc(Br)ccc2n2cc(Cc3ccccc3)[nH]c(=O)c12,73.9
3,O=C(NC(CO)Cc1ccccc1)c1cc2cc(Cl)ccc2[nH]1 (stereo unspecified),61.2

# Test system: not listed separately
# Experiment: Antioxidant activity assessed as DPPH radical scavenging activity at 10 uM after 30 mins dark incubation
# Format: functional
# Conditions: not given
row,SMILES,Activity [%]
1,O=c1[nH]c(Cc2ccccc2)cn2c1cc1ccccc12,29.3
2,CCc1c2cc(Br)ccc2n2cc(Cc3ccccc3)[nH]c(=O)c12,54.5
3,O=C(NC(CO)Cc1ccccc1)c1cc2cc(Cl)ccc2[nH]1 (stereo unspecified),50.2
